The results in this text go back to the METLIN SMRT retention time set (Domingo-Almenara et al. 2019).

Molecules are shown by their SMILES.

This series can be described thus: gradient 5% acetonitrile 3 min, to 50% in 2 min, to 85% in 15 min, held 3 min, 100 µL/min. The following applies: column: Zorbax Extend-C18 2.1 x 50 mm; eluents: water / acetonitrile, 0.1% formic acid. The procedure, abridged:
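Retention times of pure standards were taken from adduct peaks that were selected by computer and manually inspected. Over 3 months, mixtures of ~100 molecules were run by HPLC–quadrupole time-of-flight mass spectrometry in positive and negative ionization mode. The Zorbax Extend-C18 column (2.1 × 50 mm, 1.8 μm) ran at 100 μL/min in water and acetonitrile, each containing 0.1% formic acid, with 40 μL dead volume and 900 μL dwell volume.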
With `NC(N)=NCCC[C@H](NC(=O)[C@@H]1CCCN1C(=O)[C@H](N)Cc1ccccc1)C(=O)CCl`, the RP-LC retention time is 1100 s.
Compound `O=C(c1ccccc1Cl)N1CCC(n2cnnc2C2CC2)CC1` returned an RP-LC retention time of 620 s.
As for `O=C(Cc1ccc(Cl)cc1)NCc1nc(-c2ccc3oc(-c4ccccc4)nc3c2)no1`, the figure is 1110 s; as for `CN(C)c1cccc(C(=O)Nc2cccc(-c3nnc4n3CCCC4)c2)c1`, 594 s.
As for `O=C(c1cnccn1)N1CCCC1c1noc(CO)n1` (configuration not stated), the RP-LC retention time came to 572 s.
`CCOc1ccc(C2c3[nH]c4ccccc4c3CCN2C(=O)C2CC2)cc1` (configuration not stated) returned an RP-LC retention time of 1090 s.
For the compound `c1ccc(COCCc2noc(C3CN(Cc4ccccc4)C3)n2)cc1`, the RP-LC retention time stood at 693 s.
In the case of `COc1ccc(CC(=O)N2CCC(n3cnnc3C3CC3)CC2)cc1Cl`, the RP-LC retention time turned out to be 658 s.
Compound `CCn1nc(C)n2cc(S(=O)(=O)NCc3ccc(C)o3)cc2c1=O` returned an RP-LC retention time of 815 s.
In turn, `COc1ccccc1CNC(=O)C1CCN(C(=O)c2nn(C)c3c2CN(C(=O)C(C)C)CC3)CC1` registered an RP-LC retention time of 681 s.
The same measure for `O=C(Nc1ccc2c(c1)OCCO2)N1CCC2(CC1)CC(N1CCCC1)CCO2` (configuration not stated): 586 s; for `O=C(Nc1cnc(-c2cccnc2)nc1)C1CCCC1`: 654 s.
`CNC(=O)CN1CCC(Oc2cc3c(Nc4cccc(Cl)c4F)ncnc3cc2OC)CC1` returned an RP-LC retention time of 610 s.
Consider `Cc1ccccc1-c1nc(-c2ccc3c(c2)nc(C)c(=O)n3C)no1`, for which the RP-LC retention time is 1120 s.
The same measure for `Cc1ccc(C(=O)Nc2ccc3ncnc(N4CCCCC4)c3c2)s1`: 701 s; for `Cc1ccc(CNC(=O)Cn2nc(C)c3nn(-c4ccc(Cl)cc4)c(-n4cccc4)c3c2=O)o1`: 1040 s.
The same measure for `O=C(Cc1ccc(F)cc1)N1CCN(C(=O)c2cc(-c3cccnc3)n[nH]2)CC1`: 606 s; for `CCOc1ccc(NS(=O)(=O)c2cc3c4c(c2)CCC(=O)N4CCC3)cc1`: 818 s.
`COc1ccc2cc(C(=O)N3CCCC(c4nnc(-c5ccccc5F)s4)C3)[nH]c2c1` (configuration not stated) displayed an RP-LC retention time of 918 s.
As for `CCOc1ccc(C(=O)Nc2nc(-c3cccc(Br)c3)cs2)cc1`, the figure is 1240 s; as for `COc1cc([C@@H]2c3cc4c(cc3[C@H](O)[C@@H](CO)[C@@H]2C(=O)N2CCN(c3ccccc3)CC2)OCO4)cc(OC)c1OC`, 749 s.
`Cc1cccc(-c2nnc(Cc3nc(-c4ccccc4)no3)o2)c1` returned an RP-LC retention time of 1040 s.
In turn, `O=C(NCc1ccc(Cl)cc1)c1c(O)c2cccnc2n(-c2ccccc2)c1=O` gave an RP-LC retention time of 1260 s.
`COc1ccc2nc(C(=O)N3CCCCC3)cc(Nc3ccc(F)c(F)c3)c2c1` gave an RP-LC retention time of 720 s.
Regarding `Cc1cc(-c2nnc(-c3ccco3)o2)c(C)n1CC(=O)Nc1cc(F)cc(F)c1`, the RP-LC retention time was 929 s.
As to `Cc1cccc(N2C(=O)CN(S(C)(=O)=O)CC2(C)C(=O)NCc2ccc(F)cc2)c1C` (configuration not stated), the RP-LC retention time amounted to 809 s.
The same measure for `COC(=O)c1c(C)[nH]c(C(=O)N2CCCC(C(=O)NCc3ccc(N(C)C)cc3)C2)c1C` (configuration not stated): 597 s; for `COc1ccccc1-c1cc2c(=O)n(Cc3nc(-c4ccccc4)oc3C)ccn2n1`: 1120 s.
For the compound `CC(=O)N=c1sc(S(N)(=O)=O)nn1C`, the RP-LC retention time is 644 s.
As for `COc1ccc(NC(=O)C2CCCN(c3ncnc4c3nc3n4CCCCC3)C2)c(OC)c1` (configuration not stated), the figure is 777 s.
`COc1cc(NC(=O)c2[nH]c3cc(C)sc3c2CN2CCOCC2)cc(OC)c1` yielded an RP-LC retention time of 718 s.
In turn, `O=C(Cc1ccc(Cl)cc1)Nc1nnc(SCc2nnc(-c3ccccc3)o2)s1` returned an RP-LC retention time of 955 s.
